In patent publication US11492338B2, “Furan surfactant compositions and methods” (SIRONIX RENEWABLES, INC., priority 2020, dated 2022):
In brackets after ≈: the same amount, converted by molar mass. Read-outs that look alike come from different tables or passages of the source. Marks after values point to notes of the source that are not given here.

Experiments:
[1] = Krafft point; format: physicochemical
Description: (§1) Synthesized surfactants including the structure depicted in Experimental Structure 1, as well as the corresponding Na, Li, NH4, and Mg surfactants, were tested to determine surfactant properties. These included the time required for the surfactant solution to wet cotton fabric, the amount of foam the surfactant generates when agitated, the tolerance of the surfactant to calcium ions in solution as a measure of surfactant performance in hard water, and the temperature below which the surfactant forms a solid precipitate, known as the Krafft Point.

[2] = Solubility in deionized water at 20° C.; format: physicochemical
[3] = Calcium tolerance (Ca^2+ from CaCl2 until sustained precipitate); format: physicochemical; settings: ppm of Ca^2+ from CaCl2 where sustained precipitate is noted; for Calcium Tolerance: Table 2; for Ca^2+ Tolerance: Table 3
Description: as §1

[4] = Critical micelle concentration (CMC); format: physicochemical
[5] = Surface tension at critical micelle concentration; format: physicochemical
[6] = Stability tracking of oleo-furan sulfonic acid by liquid chromatography; format: physicochemical; settings: 8-week time course, room temperature and elevated temperature (42° C.)
From the text: Another advantage of surfactant embodiments disclosed herein is their inherent stability, particularly in the acid form prior to neutralization (oleo-furan sulfonic acids). As noted elsewhere herein, structural stability is an issue in the production of the common anionic surfactant SLES, causing occasional ring closure of the labile ethoxy chain during ethoxylation and sulfation step, which leads to the formation of a carcinogenic byproduct (e.g., 1,4-dioxane).
The calcium and magnesium monoanionic surfactants were both observed to have high foaming and foam stability, which is attractive for a number of applications including home cleaning, personal care, detergents, cosmetics, ore floatation and oil recovery. […] Stability of the oleo-furan surfactant, specifically the acid form oleo-furan sulfonic acid that is a precursor to the calcium and other cation surfactants, was measured over an eight week time course at room temperature and elevated temperatures, the results of which can be seen in FIG. 1.

[7] = water; common sodium surfactants; cited from earlier work

Which “Krafft Point” value ([1]; Table 2) does the source give for CCCCCCCCCCCC(=O)c1cc(S(=O)(=O)O)c(C)o1 [Ca^2+] here?
The value was less than 0 °C.

And the Solubility ([2]; Table 2, read-out: Solubility)?
The Solubility was 0.35 g/mL (≈ 1020 mM).

What about the “Calcium Tolerance” value [3] of the same molecule?
The value was >50,000 ppm.

And the “CMC (critical micelle concentration)” value ([4]; Table 2)?
The value was 300 ppm.

And the “Surface Tension at critical micelle concentration” value ([5]; Table 2)?
Its value is 33 mN/m.

For CCCCCCCCCCCC(=O)c1cc(S(=O)(=O)[O-])c(C)o1.[Li+] [Li^+], which “Krafft Point” value ([1]; Table 2) is on record?
The value was less than 0 °C.

What about the Solubility ([2]; Table 2) of the same molecule?
The Solubility was 0.3 g/mL.

What about the “Calcium Tolerance” value [3] of the same molecule?
The value was >50,000 ppm.

And the “CMC (critical micelle concentration)” value ([4]; Table 2)?
Its value is 1347 ppm.

What about the “Surface Tension at critical micelle concentration” value ([5]; Table 2) of the same molecule?
Its value is 45 mN/m.

With CCCCCCCCCCCC(=O)c1cc(S(=O)(=O)[O-])c(C)o1.CCCCCCCCCCCC(=O)c1cc(S(=O)(=O)[O-])c(C)o1.[Mg+2] [Mg^2+] as the molecule, how does the “Krafft Point” value ([1]; Table 2) read?
The value was 20 °C.

And the Solubility ([2]; Table 2)?
The Solubility was 0.01 g/mL.

And the “Calcium Tolerance” value [3]?
Its value is >50,000 ppm.

And the “Surface Tension” value ([5]; Table 2, recorded for saturated surfactant solution at 20° C.)?
The value was 38* mN/m.

For CCCCCCCCCCCC(=O)c1cc(S(=O)(=O)O)c(C)o1.N [NH4^+], which “Krafft Point” value ([1]; Table 2) is on record?
The value was less than 0 °C.

What about the Solubility ([2]; Table 2) of the same molecule?
The Solubility was 1 g/mL.

And the “Calcium Tolerance” value [3]?
The value was >50,000 ppm.

And the “CMC (critical micelle concentration)” value ([4]; Table 2)?
Its value is 3309 ppm.

What about the “Surface Tension at critical micelle concentration” value ([5]; Table 2) of the same molecule?
Its value is 39 mN/m.

With CCCCCCCCCCCC(=O)c1ccc(S(=O)(=O)[O-])o1.[Na+] [Na^+ OFS-12-1/0] as the molecule, how does the “Krafft Point” value ([1]; Table 3) read?
Its value is less than 0 °C.

And the “Ca^2+ Tolerance” value [3]?
Its value is >50,000 ppm.

And the “CMC (critical micelle concentration)” value ([4]; Table 3)?
Its value is 1735 ppm.

And the “Surface Tension at critical micelle concentration” value ([5]; Table 3)?
Its value is 44 mN/m.

What does the source list for CCCCCCCCCCCC(=O)c1cc(S(=O)(=O)[O-])c(C)o1.[Na+] [Na^+]?
Krafft Point ([1]; Table 2): <0 °C; Krafft Point ([1]; Table 3): <0 °C; Calcium Tolerance [3]: >50,000 ppm; Ca^2+ Tolerance [3]: >50,000 ppm; CMC (critical micelle concentration) ([4]; Table 2): 1480 ppm; CMC (critical micelle concentration) ([4]; Table 3): 1480 ppm; Surface Tension at critical micelle concentration ([5]; Table 2): 42 mN/m; Surface Tension at critical micelle concentration ([5]; Table 3): 42 mN/m

With CCCCCCCCCCCCOCCOCCOCCOS(=O)(=O)[O-].[Na+] [SLES, sodium lauryl ether sulfate, reference compound] as the molecule, how does the “Krafft Point” value ([1]; Table 2) read?
Its value is less than 0 °C.

And the Solubility ([2]; Table 2)?
Its Solubility is no less than 1 g/mL.

What about the “Calcium Tolerance” value [3] of the same molecule?
The value was >50,000 ppm.

And the “CMC (critical micelle concentration)” value ([4]; Table 2)?
Its value is 449 ppm.

What about the “Surface Tension at critical micelle concentration” value ([5]; Table 2) of the same molecule?
The value was 32 mN/m.

With CCCCCCCCCCCC(=O)c1cc(S(=O)(=O)O)c(C)o1 [oleo-furan sulfonic acids] as the molecule, how does the “degradation or byproduct formation by liquid chromatography” value [6] read?
The value was “negligible degradation or byproduct formation”.

For sodium dodecylbenzene sulfonate, which Solubility [7] is on record?
The Solubility was 0.25 g/mL.
